Experimental data: patent publication US20160137639A1, “TRIAZOLE-ISOXAZOLE COMPOUND AND MEDICAL USE THEREOF” (JAPAN TOBACCO INC., priority 2012, published 2016)
pEC50: −log10 of the molar value. Read-outs that look alike come from different tables or passages of the source.

Legend:
[1] = molecular target: T1, mouse RORγ (Mus musculus, UniProt P51450); experiment: Luciferase reporter gene assay of inhibitory effect against RORγ transcriptional activity (GAL4-mRORγ plasmid in CHO cells); format: cell-based; conditions: for pEC50: read-out: LUC EC50 mRORg; for EC50: read-out: LUC EC50 (μM) mRORg
T1 construct: mouse, NM_011281.2 and from Ile251 to Lys516; expressed in transfected cells; host or cells: CHO cells (transient co-transfection with pG5-Luc reporter)
T1 sequence (P51450 251-516): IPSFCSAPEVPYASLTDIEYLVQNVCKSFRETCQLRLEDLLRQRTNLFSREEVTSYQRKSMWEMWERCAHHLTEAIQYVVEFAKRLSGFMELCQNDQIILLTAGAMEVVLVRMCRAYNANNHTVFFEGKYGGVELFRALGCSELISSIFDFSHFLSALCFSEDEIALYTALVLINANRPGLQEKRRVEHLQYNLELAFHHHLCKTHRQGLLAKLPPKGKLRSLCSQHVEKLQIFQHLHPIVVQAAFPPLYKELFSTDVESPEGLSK
Outline: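 CHO cells transiently co-transfected with GAL4-mouse RORγ LBD (Ile251–Lys516) and GAL4-dependent luciferase reporter; eight compound concentrations, 0.1% DMSO, 2 days at 37 °C. Luminescence as %-of-vehicle control; EC50 by curve fit, cytotoxic concentrations excluded.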

[2] = molecular target: T2, human RORγ (Homo sapiens, UniProt P51449); experiment: Luciferase reporter gene assay of inhibitory effect against RORγ transcriptional activity (GAL4-hRORγ plasmid in CHO cells); format: cell-based; conditions: for pEC50: read-out: LUC EC50 hRORg; for EC50: read-out: LUC EC50 (μM) hRORg
T2 construct: human, NM_005060.3 and from Ser253 to Lys518; expressed in transfected cells; host or cells: CHO cells (transient co-transfection with pG5-Luc reporter)
T2 sequence (P51449 253-518): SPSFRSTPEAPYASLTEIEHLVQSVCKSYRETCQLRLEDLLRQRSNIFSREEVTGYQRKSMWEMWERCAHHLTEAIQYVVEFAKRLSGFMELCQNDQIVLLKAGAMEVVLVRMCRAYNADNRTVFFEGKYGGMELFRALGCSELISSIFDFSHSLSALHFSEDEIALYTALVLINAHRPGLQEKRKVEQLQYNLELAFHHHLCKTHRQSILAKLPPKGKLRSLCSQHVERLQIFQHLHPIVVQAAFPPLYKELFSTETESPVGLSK

How did the pEC50 [1] turn out when `Cc1ccc(NC(=O)C[C@H](CCC(=O)O)c2noc3c2C(C)CCC3CCC(C)C)c(Cl)c1` (single isomer, unassigned) [Example F-693] was run?
The pEC50 was > 5.52.

And the pEC50 [2]?
Its pEC50 is > 5.52.

`Cc1c(Cl)cccc1NC(=O)CCc1nnc(CCC2CCCNC2)n1C1CC1` (racemic) [Example F-189] was tested. Which EC50 [1] did it give?
The EC50 was > 3 µM.

What about the EC50 [2] of the same compound?
Its EC50 is > 3 µM.

`Cc1ccc(NC(=O)C[C@@H](CCO)c2nnc(CCCC(C)(C)C)n2CC(F)(F)F)c(C)c1` [Example F-379] was tested. Which EC50 [1] did it give?
The EC50 was < 3 µM.

And the EC50 [2]?
Its EC50 is > 3 µM.

`Cc1ccc(NC(=O)[C@H]2CN(S(=O)(=O)C(F)(F)F)C[C@@H]2c2nnc(-c3cc(CC(C)C)on3)n2C2CC2)c(C)c1` [Example F-547] was tested. Which pEC50 [1] did it give?
Its pEC50 is > 5.52.

What about the pEC50 [2] of the same compound?
Its pEC50 is > 5.52.

`Cc1c(Cl)cccc1NC(=O)CCc1nnc(CC(C)C(C)C)n1C1CC1` (racemic) [Example F-117] was tested. Which EC50 [1] did it give?
The EC50 was < 3 µM.

And the EC50 [2]?
The EC50 was > 3 µM.

`Cc1ccc(NC(=O)CC(Cc2nc(=O)o[nH]2)c2nnc([C@H]3C[C@@H](CC(C)C)C3)n2C2CC2)c(C)c1` (mixture of isomers) [Example F-472] was tested. Which EC50 [1] did it give?
The EC50 was < 3 µM.

And the EC50 [2]?
The EC50 was < 3 µM.

How did the EC50 [1] turn out when `Cc1c(Cl)cccc1NC(=O)CCc1nnc(CCC2CCC(F)(F)CC2)n1C1CC1` [Example F-254] was run?
The EC50 was < 3 µM.

And the EC50 [2]?
The EC50 was < 3 µM.

How did the EC50 [1] turn out when `Cc1ccc(NC(=O)CCc2nnc(CCC3CCCCC3)n2C2CC2)c(C)c1` [Example F-95] was run?
Its EC50 is < 3 µM.

And the EC50 [2]?
The EC50 was < 3 µM.

For `Cc1ccc(NC(=O)C[C@H](CCC(=O)O)c2noc(-c3ncc(CC(C)C)s3)c2C2CC2)c(Cl)c1` [Example E-15], which EC50 [1] is on record?
Its EC50 is < 3 µM.

What about the EC50 [2] of the same compound?
Its EC50 is < 3 µM.

What does the source list for `Cc1ccc(C#N)cc1NC(=O)CCc1nnc(CCC(C)C)n1C1CC1` [Example F-143]?
EC50 [1]: > 3 µM; EC50 [2]: > 3 µM

With `CC(=O)N[C@@H](CC(=O)Nc1ccc(C)cc1C)c1nnc(CCCC(C)C)n1C1CC1` [Example F-291] as the compound, how does the EC50 [1] read?
The EC50 was < 3 µM.

And the EC50 [2]?
Its EC50 is < 3 µM.

How did the pEC50 [1] turn out when `Cc1ccc(NC(=O)C[C@H](CCCO)c2noc(-c3cn(CCC(C)(C)C)nc3C(F)(F)F)c2C2CC2)c(F)c1` [Example F-705] was run?
Its pEC50 is < 5.52.

And the pEC50 [2]?
The pEC50 was < 5.52.

`Cc1cc(Cl)ccc1NC(=O)C[C@H](CCC(=O)O)c1noc(-c2cc(CCC(C)(C)C)on2)c1C1CC1` [Example E-38] was tested. Which EC50 [1] did it give?
Its EC50 is < 3 µM.

What about the EC50 [2] of the same compound?
Its EC50 is < 3 µM.

With `Cc1ccccc1NC(=O)CCc1nnc(CCC(C)C)n1C1CC1` [Example F-64] as the compound, how does the EC50 [1] read?
The EC50 was > 3 µM.

What about the EC50 [2] of the same compound?
Its EC50 is > 3 µM.

How did the pEC50 [1] turn out when `Cc1ccc(NC(=O)CCc2noc([C@H]3C[C@@H](CC(C)(C)C)C3)c2C2CC2)c(Cl)c1` [Example F-719] was run?
Its pEC50 is > 5.52.

And the pEC50 [2]?
The pEC50 was > 5.52.

Which results are given for `Cc1c(Cl)cccc1NC(=O)CCc1nnc(CCN2CCC(F)(F)CC2)n1C1CC1` [Example F-261]?
EC50 [1]: < 3 µM; EC50 [2]: > 3 µM

With `O=C(O)CC[C@@H](CC(=O)Nc1ccc(F)cc1Cl)c1noc(-c2cc(C3CCCC3)on2)c1C1CC1` [Example E-60] as the compound, how does the EC50 [1] read?
Its EC50 is < 3 µM.

What about the EC50 [2] of the same compound?
Its EC50 is < 3 µM.

What does the source list for `Cc1ccc(NC(=O)C[C@H](CCC(=O)O)n2nnc([C@H]3C[C@@H](CC(C)(C)C)C3)c2C2CC2)c(Cl)c1` [Example F-682, (S)-5-(2-chloro-4-methyl-phenylcarbamoyl)-4-{5-cyclopropyl-4-[3-(2,2-dimethyl-propyl)-cyclobutyl]-[1,2,3]triazol-1-yl}pentanoic acid]?
pEC50 [1]: > 5.52; pEC50 [2]: > 5.52
